A short description of data set [1]: Pharmacokinetics of montelukast with and without sMAP. Conditions: SD, rat, plasma, 0.2 mg.
The subject of another data set is C57BL/6 mice. Description: Air pouch model (carrageenan-induced acute inflammation). Type of data set: in vivo. Also on record: key to Inflammation score / Edema score: 1 = mild, 2 = moderate, 3 = severe. To be noted: dexamethasone 400 μg/mouse. On the procedure:
Healthy adult male C57BL/6 mice weighing between 20 and 30 g were supplied by Changzhou Cvens Experimental Animal Co. Ltd. Prior to any experiments being conducted, the mice were housed under standardized conditions (at a constant temperature or 22±2° C., with alternating 12-hour periods of light and darkness), and were fed on a standard mouse diet with water, for about a week. The mice were randomly divided into 9 groups as described in Table 4, with 7 mice in each group.
General anaesthesia was induced using intraperitoneal delivery of 3% chloral hydrate (Sinopharm Chemical Reagent Co., Ltd., Shanghai, China); 1 mL/10 g of body weight). The hair of the entire dorsum was shaved and depilated one day before sterile air injection.
Air pouches were produced by subcutaneous injection of sterile air (5 mL) into the intrascapular area of the mice. After three days, another injection of air (3 mL) was performed to maintain the pouches. In order to induce acute inflammation, three days after the second injection, animals received an injection of sterile carrageenan solution (CP Kelco, Taixing, Jiangsu Province, China; 1%, 0.5 mL; produced by adding 0.1 g of carrageenan powder into a beaker containing 10 mL of 0.9% saline solution and stirring). Mice were pre-treated with test samples or vehicle 1 hour before and 23 hours after the carrageenan injection into the subcutaneous air pouch. Animals were sacrificed 24 hours after the carrageenan injection.
Skin biopsies were taken from the air pouches. A part of the biopsy was fixed in formalin (produced by adding ultra-pure water to 50 mL of a 40% formaldehyde solution (Nanchang Rain Dew Experimental Equipment Co., Ltd., Nanchang, […] Provence, China) up to a total volume of 500 mL) and analyzed by histological embedding in paraffin wax, sectioning and staining.
The histological specimens were analyzed, and an inflammation score and an edema score were estimated. The inflammation scores were estimated by observing heamatoxylin and eosin (HE) stained slices under an optical microscope. Scores (between 1 to 3 points) were given according to the perceived inflammation level (e.g. in cases where only a small amount of inflammatory cells scattered in the area: 1 point was given (mild); in cases where many inflammatory cells were observed: 2 points were given (moderate); and, in cases with diffuse infiltration: 3 points were given (severe)). A similar scoring system was employed for edema levels (3 points for most severe and 1 point for mild) after overall observation.
After conducting some preliminary experiments to validate the model, an experiment was conducted in which mice were treated by administering test samples or vehicle in accordance with Table 4 below. Compound A and Compound B were dissolved in saline at concentrations indicated in Table 4 below (L=low dose, M=medium dose, H=high dose).
Compound A and Compound B were synthesized as described in Examples 8 and 7 above, respectively. The peptide powders were stored at −20° C. prior to use. Dexamethasone (Dex) was obtained from Shanghai Aladdin Bio-Chem Technology Co., Ltd., Shanghai, China.

The test system of the next data set is SD rats. Description: Experimental gastric ulcer model (anhydrous alcohol). Format: in vivo. To be noted: omeprazole 2 mg/mL, 4 mg/kg oral gavage once per day for 30 days. How it is done:
SPF grade SD rats were used in this experiment, with 10 rats in each group. According to an evaluation method of health food for gastric ulcer issued by Chinese State Food and Drug Administration, the protective effect of Compound B on acute gastric ulcers induced by anhydrous alcohol was observed after continuous gavage for 30 days.
Omeprazole enteric-coated capsules (20 mg/capsule; Heilongjiang Norgas Pharmaceutical Co., Ltd., China) were opened and the powder was dissolved in water to make a 2 mg/mL solution. Compound B (see Example 7 above) powder was dissolved in water to make two solutions with concentrations of 0.25 mg/mL and 0.75 mg/mL. Administration volumes were […].
All drugs were administrated as shown in Table 13 by oral gavage for 30 consecutive days, once per day. The rats had free access to water. On the 30th day, rats were fasted for 24 hours after the last drug administration. On the 31st day, 1.0 mL/rat of absolute ethanol was given by gavage to each rat in all of the experimental groups except the control group.
1 hour later, all of the rats were sacrificed and dissected to expose the intact stomach, followed by ligation of the pylorus. 10% formaldehyde solution was administered into the stomach by perfusion and fixed for 20 minutes. The stomach was dissociated after fixation and cut open along the greater curvature. The stomach contents were washed off the lining with saline to reveal the gastric mucosa.
The length and width of gastric mucosal bleeding were measured with a Vernier calliper under a stereo microscope or by the naked eye.

Another data set relates to person two. Description: Ulcerative colitis, patient case. Format: in vivo, human. Conditions: oral 5-aminosalicylic acid for 3 days. The source says: person two was diagnosed with an acute attack of ulcerative colitis. […] After this, they were given the same Compound C gel as described in Example 41 above, at the same dose, 3 times over the first two days. The frequent with which they had to go to the toilet reduced to 3 to 4 times a day.

The next data set can be described thus: in vivo. Conditions: SD, rat.
Data set [2] has as its system Human Influenza A Virus H1N1. To be noted: virus mixed with drug 1 hour, 2-128 μg/mL; Vero cells; viral RNA.

What is called AUC(0-t) is the area under the concentration-time curve up to a stated or last time point. As a reminder, the Cmax is the maximum level reached in the sampled fluid or tissue. In general, Tmax refers to the time from dosing to the highest level. Broadly, the half-life is how long it takes for the measured level to halve.

Bridge positions count the residues as written; N and C are the ends. Square brackets hold non-standard residues; d marks the D form. Ends that are not written are not given here. I, II: the chains in the order shown. Dopa = N[C@@H](Cc1ccc(O)c(O)c1)C(=O)O; Hyp = O=C(O)[C@@H]1C[C@@H](O)CN1

Procedure for in vivo: The rats were treated by administering test samples.
The rats were anesthetized by 2% isoflurane inhalation. The rats were placed in the supine position, the rectum end stool was extruded and 75% alcohol cotton ball was used to disinfect the anal periphery skin area.
A 2 mL syringe was used to draw back the air bag cavity to ensure that there was no air in the air bag after water filling. The catheter (2-WAY 8Ch/Fr3-5 mm) was inserted into the rats anus at a depth of about 3 cm (2 cm length from the end of the balloon; the tip of the catheter was cut below the position of the urethral catheter tip, and shortened as much as possible while maintaining the integrity of the air cavity. The guide wire was removed, the urethral catheter was sealed with neutral glass glue while ensuring smooth sealing end to reduce the damage to the rectal mucosa).
While the perianal skin was held to fix the catheter and the gavage needle, 1 mL of water was injected with a 2 mL syringe into the airbag cavity in order to expand it, and the needle was then quickly released to observe whether there was gel leakage.
After injection, adhesive tape was wrapped around the tail root to fix the catheter (the catheter was litigated about 3-5 cm from the anus, then cut off after ligation, and an adhesive tape was wrapped around the tail root for fixation. The fixation of the pressure-sensitive adhesive tape is based on the standard of non-looseness of the urinary catheter, which should not be too tight and cause discomfort for animals to bite. The catheter should be fixed by tape twice: the catheter should be knotted the first time, while the remaining catheter should be fixed at the end of the tail the second time. The 3 cm scale on the catheter should be at the anus, and the catheter should not be taken out when the knot is tied). The rats were put back into the cage after administration.
An anal plug was maintained in the rectum for 4 h to extend the retention time of the drug in the animal body. The anal plug dropped within 4 h after the drug was administered, and the approximate time period of the drop was recorded.
Blood samples were processed by coating all centrifuge tubes with EDTA-K2 and storing them either in a refrigerator (2-8° C.) or a cooler filled with ice, protected from light prior to use; the blood that was collected was transferred into the centrifuge tubes and stored in ice box protected from light after having been mixed manually by reversing the tubes at least 5 times. The samples were subsequently centrifuged at 1800 g for 10 minutes at 2 to 8° C. within 2 hours from blood collection. After the centrifugation, the collected plasma samples were transferred into newly labeled centrifuge tubes, aliquoted into two sets, and stored below −70° C. away from light.
AUC, Cmax, Tmax, and any other parameters as needed, were calculated using WinNonlin software. Microsoft Office Excel was used for data statistical analysis, including mean, standard deviation (SD), and coefficient of variation (CV), etc. The difference in pharmacokinetic parameters between the two groups was compared.

`CC(C)(O)c1ccccc1CC[C@@H](SCC1(CC(=O)O)CC1)c1cccc(/C=C/c2ccc3ccc(Cl)cc3n2)c1` [Montelukast, montelukast sodium]: in data set [1] (female), the AUC(0-t) stood at 229 ng·h/mL, the Cmax came to 156 ng/mL, the time of peak concentration (Tmax) was determined as 0.5 h and the half-life was 2.3 h. Moreover, in data set [1] (male), the area under the curve AUC(0-t) stood at 238 ng·h/mL, the Cmax came to 151 ng/mL, the Tmax is 0.5 h and the half-life is 1.8 h.

`C[C@@H]1C[C@H]2[C@@H]3CCC4=CC(=O)C=C[C@]4(C)[C@@]3(F)[C@@H](O)C[C@]2(C)[C@@]1(O)C(=O)CO` [Dex, Dexamethasone, reference compound]: the “Sum of the scores” value in the data set with C57BL/6 mice is 2.14. For the same compound, in the data set on C57BL/6 mice (1 h before and 23 h after carrageenan, histology, score 1-3), the Inflammation score was 0.57. In the data set with C57BL/6 mice (histology, score 1-3), this compound returned an Edema score of 1.57.

For the compound `COc1ccc2[nH]c([S+]([O-])Cc3ncc(C)c(OC)c3C)nc2c1` (centres unmarked) [Omeprazole, reference compound], the Damage score in the data set with SD rats stood at 20.

Consider `Nc1ccc(O)c(C(=O)O)c1` [Mesalazine, 5-aminosalicylic acid], for which the “symptoms of ulcerative colitis” value in the data set on person two is reported as “symptoms did not change”. In “in vivo” (female), the AUC(0-t) was 38900 ng·h/mL, the Cmax was 13800 ng/mL and the Tmax worked out at 1.83 h. In the data set “in vivo” (male), the AUC(0-t) came out at 56100 ng·h/mL, the peak level (Cmax) was 17500 ng/mL and the Tmax is 1.67 h.

As for “I: AKPS[Dopa][Hyp]T[Dopa][Hyp]KKK / II: AKPS[Dopa][Hyp]T[Dopa][Hyp]KK / III: AKPS[Dopa][Hyp]T[Dopa][Hyp]K / IV: AKPS[Dopa][Hyp]T[Dopa][Hyp]K (amide I:11-IV:C, I:12-II:C, II:11-III:C) [Compound C, [(Ala-Lys-Pro-Ser-DOPA-Hyp-Thr-DOPA-Hyp-Lys)2-Lys]2-Lys]”, the “IC50 (virus inhibition rate)” value in data set [2] was greater than 32 µg/mL.

For the origin of these results see patent publication US20230331792A1, “NEW MULTI-FUNCTIONAL OLIGOPEPTIDES” (ENLITISA (SHANGHAI) PHARMACEUTICAL CO., LTD., priority 2019, published 2023).
